This is an account of results in patent US20220054469A1, “FARNESOID X RECEPTOR AGONISTS AND USES THEREOF” (Metacrine, Inc., priority 2018, published 2022).

The target in this assay is T1, hFXR (Homo sapiens, UniProt Q96RI1).
T1 construct: expressed in transfected cells; host or cells: CV-1 cells
T1 sequence (Q96RI1 1-486): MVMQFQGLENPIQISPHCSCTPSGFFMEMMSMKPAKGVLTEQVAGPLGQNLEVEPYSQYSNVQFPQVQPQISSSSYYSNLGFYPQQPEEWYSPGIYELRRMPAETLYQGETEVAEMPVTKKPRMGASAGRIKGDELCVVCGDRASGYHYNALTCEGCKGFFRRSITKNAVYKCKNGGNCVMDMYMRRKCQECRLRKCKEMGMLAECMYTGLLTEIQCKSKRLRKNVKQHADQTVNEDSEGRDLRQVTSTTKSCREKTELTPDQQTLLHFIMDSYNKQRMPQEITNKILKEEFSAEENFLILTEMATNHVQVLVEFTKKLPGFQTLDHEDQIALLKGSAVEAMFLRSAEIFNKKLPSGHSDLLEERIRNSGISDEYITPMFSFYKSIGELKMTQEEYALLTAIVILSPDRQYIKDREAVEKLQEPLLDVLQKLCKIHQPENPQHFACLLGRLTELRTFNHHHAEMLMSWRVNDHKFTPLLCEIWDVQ
T1 sequence (P19793 1-462 partner): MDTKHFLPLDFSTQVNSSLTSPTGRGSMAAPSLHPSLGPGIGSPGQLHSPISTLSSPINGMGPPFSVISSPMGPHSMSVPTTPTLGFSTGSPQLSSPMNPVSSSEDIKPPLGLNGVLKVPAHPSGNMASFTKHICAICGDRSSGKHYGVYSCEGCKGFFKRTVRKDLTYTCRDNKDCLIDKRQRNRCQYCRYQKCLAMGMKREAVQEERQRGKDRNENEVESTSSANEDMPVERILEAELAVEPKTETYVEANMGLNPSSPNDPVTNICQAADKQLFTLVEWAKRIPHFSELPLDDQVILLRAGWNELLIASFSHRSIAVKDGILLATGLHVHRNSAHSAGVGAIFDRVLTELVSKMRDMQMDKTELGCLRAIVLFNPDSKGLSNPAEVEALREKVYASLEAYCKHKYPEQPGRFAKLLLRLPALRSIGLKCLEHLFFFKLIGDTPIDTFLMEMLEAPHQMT
As to the kind of experiment: In Vitro FXR Assay (TK). It is filed as cell-based. The conditions noted are these: CV-1 cells transfected with hFXR, hRXR, TK-ECRE-luc and pCMX-YFP; incubated with compound for 18 hrs; luminescence. An outline of the steps:
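Luciferase read-out from lysed CV-1 cells carrying transfected hFXR, hRXR, TK-ECRE-luc and pCMX-YFP. Test compounds, DMSO serial dilutions, were incubated with the cells for 18 h before lysis. Cells grew in charcoal-stripped serum medium.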

As to `COc1ccc(C23CCC(CN(c4cc(-c5cnn(C(C)C)c5)c(F)cn4)C(=O)[C@H]4CC[C@H](CC(=O)O)CC4)(CC2)CC3)cc1C` [Compound 2.10, trans-2-(4-((5-Fluoro-4-(1-isopropyl-1H-pyrazol-4-yl)pyridin-2-yl)((4-(4-methoxy-3-methylphenyl)bicyclo[2.2.2]octan-1-yl)methyl)carbamoyl)cyclohexyl)acetic acid], the half-maximal effective concentration (EC50) is at most 50 nM.
For `COc1ccc([C@H]2CC[C@H](CN(c3cccc(-c4cnn(C(C)(C)C)c4)c3)C(=O)[C@H]3CC[C@H](CCC(=O)O)CC3)CC2)cc1C` [Compound 3.03, trans-3-(4-((3-(1-(tert-Butyl)-1H-pyrazol-4-yl)phenyl)((trans-4-(4-methoxy-3-methylphenyl)cyclohexyl)methyl)carbamoyl)cyclohexyl)propanoic acid], the concentration for a half-maximal effect (EC50) is at most 50 nM.
Then `COc1ccc(C23CCC(CN(C(=O)[C@@H]4CCC[C@@H](C(=O)O)C4)c4cc(-c5cnn(C(C)C)c5)ccn4)(CC2)CC3)cc1C` (relative stereo) [Compound 3.06, trans-3-((4-(1-Isopropyl-1H-pyrazol-4-yl)pyridin-2-yl)((4-(4-methoxy-3-methylphenyl)bicyclo[2.2.2]octan-1-yl)methyl)carbamoyl)cyclohexanecarboxylic acid], with 50 to 1000 nM.

A word on the EC50: it is the midpoint of the concentration-response curve.
